Test results reported in ChEMBL document CHEMBL1201862, “PubChem BioAssay data set” (2004).
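Briefly, cells in 96-well plates were exposed to five compound concentrations for 48 h, and endpoints were estimated by linear interpolation. The concentration for 50% growth inhibition is given as GI50.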 Activity calls are given as the source filed them. Rule as the data show it: active = GI50 up to about 1.1 µM and inactive = higher.

Assays:
Assay in all cases: NCI-60 cell line screen, 48 h
786-0 = system: 786-0
A498 = system: A498
A549 = system: A549
ACHN = system: ACHN
BT-549 = system: BT-549
CAKI-1 = system: CAKI-1
CCRF-CEM = system: CCRF-CEM
COLO 205 = system: COLO 205
EKVX = system: EKVX
HCC 2998 = system: HCC 2998
HCT-116 = system: HCT-116
HCT-15 = system: HCT-15
HOP-62 = system: HOP-62
HT-29 = system: HT-29
Hs-578T = system: Hs-578T
K562 = system: K562
KM12 = system: KM12
M14 = system: M14
MCF7 = system: MCF7
MDA-MB-231 = system: MDA-MB-231
MDA-MB-435 = system: MDA-MB-435
MDA-N = system: MDA-N
MOLT-4 = system: MOLT-4
Malme-3M = system: Malme-3M
NCI-H226 = system: NCI-H226
NCI-H23 = system: NCI-H23
NCI-H460 = system: NCI-H460
NCI/ADR-RES = system: NCI/ADR-RES
OVCAR-3 = system: OVCAR-3
OVCAR-4 = system: OVCAR-4
OVCAR-5 = system: OVCAR-5
OVCAR-8 = system: OVCAR-8
PC-3 = system: PC-3
RPMI-8226 = system: RPMI-8226
SF-268 = system: SF-268
SF-295 = system: SF-295
SF-539 = system: SF-539
SK-MEL-28 = system: SK-MEL-28
SK-MEL-2 = system: SK-MEL-2
SK-OV-3 = system: SK-OV-3
SN12C = system: SN12C
SNB-19 = system: SNB-19
SNB-75 = system: SNB-75
SW-620 = system: SW-620
T47D = system: T47D
U-251 = system: U-251
UACC-257 = system: UACC-257
UACC-62 = system: UACC-62
UO-31 = system: UO-31
DU-145 = system: DU-145
HL-60 = system: HL-60
HOP-92 = system: HOP-92
IGROV-1 = system: IGROV-1
LOX IMVI = system: LOX IMVI
NCI-H522 = system: NCI-H522
RXF 393 = system: RXF 393
SK-MEL-5 = system: SK-MEL-5
TK-10 = system: TK-10
SR = system: SR

c1ccc2c(c1)ccc1nc(-c3ccc4c(c3)OCO4)c3c(c12)CCCC3
GI50 (786-0): 26.1 µM (inactive) | GI50 (A498): 14.6 µM (inactive) | GI50 (A549): 20.6 µM (inactive) | GI50 (ACHN): 20.8 µM (inactive) | GI50 (BT-549): 17 µM (inactive) | GI50 (CAKI-1): 45.4 µM (inactive) | GI50 (CCRF-CEM): 25.9 µM (inactive) | GI50 (COLO 205): 20.3 µM (inactive) | GI50 (EKVX): 37.1 µM (inactive) | GI50 (HCC 2998): 31.7 µM (inactive) | GI50 (HCT-116): 15.8 µM (inactive) | GI50 (HCT-15): 6.07 µM | GI50 (HOP-62): 41.9 µM (inactive) | GI50 (HT-29): 9.48 µM (inactive) | GI50 (Hs-578T): 2.39 µM (inactive) | GI50 (K562): 16.3 µM (inactive) | GI50 (KM12): 11.3 µM (inactive) | GI50 (M14): 28.7 µM (inactive) | GI50 (MCF7): 24.5 µM (inactive) | GI50 (MDA-MB-231): 4.48 µM (inactive) | GI50 (MDA-MB-435): 27.5 µM (inactive) | GI50 (MDA-N): 37.9 µM (inactive) | GI50 (MOLT-4): 8.26 µM (inactive) | GI50 (Malme-3M): 20.8 µM (inactive) | GI50 (NCI-H226): 73.1 µM (inactive) | GI50 (NCI-H23): 13.8 µM (inactive) | GI50 (NCI-H460): 11.6 µM (inactive) | GI50 (NCI/ADR-RES): 17.7 µM (inactive) | GI50 (OVCAR-3): 15.4 µM (inactive) | GI50 (OVCAR-4): 13.6 µM (inactive) | GI50 (OVCAR-5): 93.5 µM (inactive) | GI50 (OVCAR-8): 20.2 µM (inactive) | GI50 (PC-3): 8.75 µM (inactive) | GI50 (RPMI-8226): 15.5 µM (inactive) | GI50 (SF-268): 12.2 µM (inactive) | GI50 (SF-295): 12.2 µM (inactive) | GI50 (SF-539): 12.5 µM (inactive) | GI50 (SK-MEL-28): 30.2 µM (inactive) | GI50 (SK-MEL-2): 23.2 µM (inactive) | GI50 (SK-OV-3): 43.5 µM (inactive) | GI50 (SN12C): 26.1 µM (inactive) | GI50 (SNB-19): 77.8 µM (inactive) | GI50 (SNB-75): 31.1 µM (inactive) | GI50 (SW-620): 29.2 µM (inactive) | GI50 (T47D): 11.3 µM (inactive) | GI50 (U-251): 7.6 µM (inactive) | GI50 (UACC-257): 30.1 µM (inactive) | GI50 (UACC-62): 18.8 µM (inactive) | GI50 (UO-31): 20.9 µM (inactive)

O=S(=O)(/N=C(\NO)Nc1ccc(Cl)cc1)c1cccc2nsnc12
GI50 (786-0): 21.6 µM (inactive) | GI50 (A549): 45.5 µM (inactive) | GI50 (ACHN): 34.4 µM (inactive) | GI50 (BT-549): 28.6 µM (inactive) | GI50 (CAKI-1): 12.9 µM (inactive) | GI50 (CCRF-CEM): 26.1 µM (inactive) | GI50 (COLO 205): 32.4 µM (inactive) | GI50 (DU-145): 41.3 µM (inactive) | GI50 (EKVX): 26.2 µM (inactive) | GI50 (HCT-116): 32 µM (inactive) | GI50 (HCT-15): 18.3 µM | GI50 (HL-60): 13.4 µM (inactive) | GI50 (HOP-62): > 100 µM (inactive) | GI50 (HOP-92): 22.1 µM (inactive) | GI50 (HT-29): 39.2 µM (inactive) | GI50 (Hs-578T): 29.2 µM (inactive) | GI50 (IGROV-1): 28.1 µM (inactive) | GI50 (K562): 19.7 µM (inactive) | GI50 (KM12): 31 µM (inactive) | GI50 (LOX IMVI): 20.3 µM (inactive) | GI50 (M14): 35.4 µM (inactive) | GI50 (MDA-MB-231): 77.1 µM (inactive) | GI50 (MDA-MB-435): 23 µM (inactive) | GI50 (MDA-N): 54.1 µM (inactive) | GI50 (MOLT-4): 12.8 µM (inactive) | GI50 (Malme-3M): 21.2 µM (inactive) | GI50 (NCI-H226): 81.1 µM (inactive) | GI50 (NCI-H23): 45.2 µM (inactive) | GI50 (NCI-H460): 38.7 µM (inactive) | GI50 (NCI-H522): 11 µM (inactive) | GI50 (NCI/ADR-RES): 46 µM (inactive) | GI50 (OVCAR-3): 18.7 µM (inactive) | GI50 (OVCAR-4): 13.7 µM (inactive) | GI50 (OVCAR-5): 26.9 µM (inactive) | GI50 (OVCAR-8): 34.3 µM (inactive) | GI50 (PC-3): 30.3 µM (inactive) | GI50 (RXF 393): 19.6 µM (inactive) | GI50 (SF-268): 34.4 µM (inactive) | GI50 (SF-295): 57.9 µM (inactive) | GI50 (SF-539): 59.3 µM (inactive) | GI50 (SK-MEL-28): 18.7 µM (inactive) | GI50 (SK-MEL-2): 16.4 µM (inactive) | GI50 (SK-MEL-5): 14.8 µM (inactive) | GI50 (SK-OV-3): 76.2 µM (inactive) | GI50 (SN12C): 21.9 µM (inactive) | GI50 (SNB-19): 94.4 µM (inactive) | GI50 (SNB-75): 31.8 µM (inactive) | GI50 (SW-620): 31.8 µM (inactive) | GI50 (T47D): 48.1 µM (inactive) | GI50 (TK-10): 55.7 µM (inactive) | GI50 (U-251): 31.6 µM (inactive) | GI50 (UACC-257): 31 µM (inactive) | GI50 (UACC-62): 21.6 µM (inactive) | GI50 (UO-31): 65.2 µM (inactive)

COc1ccc2c(N=[N+]=[N-])c(-c3ccccc3)c(=O)oc2c1
GI50 (786-0): > 100 µM (inactive) | GI50 (A498): 45.9 µM (inactive) | GI50 (A549): 48.4 µM (inactive) | GI50 (ACHN): 41.1 µM (inactive) | GI50 (BT-549): 31.4 µM (inactive) | GI50 (CAKI-1): 30.1 µM (inactive) | GI50 (CCRF-CEM): 36.1 µM (inactive) | GI50 (COLO 205): 56.8 µM (inactive) | GI50 (DU-145): 65.6 µM (inactive) | GI50 (EKVX): 39.8 µM (inactive) | GI50 (HCC 2998): 92.3 µM (inactive) | GI50 (HCT-116): 44.3 µM (inactive) | GI50 (HCT-15): 56.6 µM | GI50 (HL-60): 22.5 µM (inactive) | GI50 (HOP-62): > 100 µM (inactive) | GI50 (HT-29): 32.1 µM (inactive) | GI50 (Hs-578T): > 100 µM (inactive) | GI50 (IGROV-1): > 100 µM (inactive) | GI50 (K562): 40 µM (inactive) | GI50 (KM12): 34.5 µM (inactive) | GI50 (LOX IMVI): 82.8 µM (inactive) | GI50 (M14): 57 µM (inactive) | GI50 (MCF7): 36.2 µM (inactive) | GI50 (MDA-MB-231): 87.1 µM (inactive) | GI50 (MDA-MB-435): 45.8 µM (inactive) | GI50 (MDA-N): 48.8 µM (inactive) | GI50 (MOLT-4): 21.5 µM (inactive) | GI50 (Malme-3M): 33.3 µM (inactive) | GI50 (NCI-H23): 24.5 µM (inactive) | GI50 (NCI-H460): 49.3 µM (inactive) | GI50 (NCI-H522): 26.1 µM (inactive) | GI50 (OVCAR-8): 77.1 µM (inactive) | GI50 (PC-3): 52.7 µM (inactive) | GI50 (RPMI-8226): 20.8 µM (inactive) | GI50 (SF-268): 78.5 µM (inactive) | GI50 (SF-295): 61.9 µM (inactive) | GI50 (SF-539): > 100 µM (inactive) | GI50 (SK-MEL-28): > 100 µM (inactive) | GI50 (SK-MEL-5): 25.5 µM (inactive) | GI50 (SK-OV-3): 76.6 µM (inactive) | GI50 (SN12C): 61.1 µM (inactive) | GI50 (SNB-75): > 100 µM (inactive) | GI50 (SR): 22.2 µM (inactive) | GI50 (SW-620): > 100 µM (inactive) | GI50 (T47D): 22.8 µM (inactive) | GI50 (TK-10): 87.5 µM (inactive) | GI50 (UACC-257): 29.6 µM (inactive) | GI50 (UACC-62): 58.6 µM (inactive)
